Test results as given in US20060281899A1, “Mutants of biotin binding protein” (priority 2002, published 2006).
Read-outs that look alike come from different tables or passages of the source.

Key:
[1] = biotin cuvette; avidin values from literature; cited from earlier work
[2] = Non-reducing SDS-PAGE thermostability, oligomeric forms after boiling; assay type: physicochemical; details: boiled 20 minutes
Description: The heat stability of the AVRs was studied by using an SDS-PAGE-based method (Bayer, E. A., Ehrlich-Rogozinski, S. and Wilchek, M. (1996) Electrophoresis 17, 1319-1324). In this method, each protein sample was divided into two fractions one of which was kept biotin-free and the other was supplemented with an excess of biotin. The samples were then mixed with denaturing SDS-PAGE sample buffer (containing β-mercaptoethanol) and incubated at a given temperature for 20 minutes. After heat treatment, the samples were subjected to SDS-PAGE and visualised by staining with Coomassie brilliant blue. The relative proportions of tetrameric and monomeric forms of the AVR proteins (with avidin as the control) were detected. A similar assay, with β-mercaptoethanol omitted from the sample buffer, was performed to examine the presence of intersubunit disulfide-bridges. Sensitivity to proteinase K was studied both in the absence and in the presence of biotin as described (Laitinen, O. H., Airenne, K. J., Marttila, A. T., Kulik, T., Porkka, E., Bayer, E. A., Wilchek, M. and Kulomaa, M. S. (1999) FEBS Lett. 461, 52-8). The isoelectric point of each AVR was determined by isoelectric focusing as previously reported (Marttila, A. T., Airenne, K. J., Laitinen, O. H., Kulik, T., Bayer, E. A., Wilchek, M. and Kulomaa, M. S. (1998) FEBS Lett. 441, 313-317). […]

[3] = Microparticle analysis, BF523-biotin binding of protein-coated particles before and after 95° C.; assay type: physicochemical; details: 30 minutes at 95° C., BF523-biotin added after treatment (iv)
Description: Before the analysis, 3.22 μm microparticles with COOH-group/0.852 nm2 (Bangs laboratories, Fishers, Ind., USA) were covalently coated with biotin-binding proteins. Microparticles (1*108 pcs) were washed twice with H20 by sequential centrifuging (5000 g; 3 min) and aspiration, and resuspended in 200 μl PB buffer (50 mM NaH2PO4-HCl, pH 3.0). A solution of biotin binding protein (50 μl, 1 mg/ml or 3 mg/ml, 50 mM Na-acetate pH 4.0) was added while vortexing. The suspension was incubated for 1 h (500 rpm; 23° C.). Particles were washed with PB and with MES buffer (50 mM, pH 5.5) and suspended in MES buffer (200 μl). […] After the last wash particles were suspended in 100 μl volume and concentration of particles was determined with Multisizer 3 Coulter Counter (Beckman Coulter, Fullerton, Calif., USA). […]
Microparticles (5*106 pcs) were suspended in 900 μl of assay buffer and aliquoted in […] PCR-tubes (i-v; 180 μl/aliquot). […] The samples were measured with ArcDia TPX PlateReader (ArcDia Ltd.) (Soini, E., Meltola, N. J., Soini, A. E., Soukka, J., Soini, J. T. & Hanninen, P. E. (2000) Biochem. Soc. Trans. 28, 70-74). […]
The fluorescence emission efficiencies of the BF523-biotin conjugate (200 nM) was determined before and after the incubation (30 min) at 95° C. […]

[4] = IAsys optical biosensor, affinity of avidin and avidin mutants towards 2-iminobiotin; assay type: binding
Description: Reversibility of biotin binding was measured for avidin and the mutants with an IAsys optical biosensor (Laitinen, O. H. et al., FEBS Lett 461 (1999), 52-8). Protein samples were allowed to bind to a biotin-aminosilane cuvette in PBS containing 1 M NaCl. After the equilibrium was reached, biotin-containing buffer was added and the dissociation of the proteins was monitored. The affinities of the proteins towards 2-iminobiotin were determined with an IAsys optical biosensor (Marttila, A. T. et al. FEBS Lett 441 (1998), 313-7). Biotin-binding activity of the mutants Avd-ci and Avd-ccci after heat treatment was studied with a microtiter plate assay. Protein samples, 5 μg/ml concentration in PBS, were heated for various time periods at 99.9° C. and then chilled on ice. The samples were transferred to a Nunc Maxisorp-plate and incubated at 37° C. for 2 h. The wells were washed three times with PBS-Tween (0.05% v/v). After that the wells were blocked with PBS containing 1% BSA at 37° C. for 30 minutes and washed again with PBS-Tween. Next, biotinylated alkaline phosphatase (Sigma) in PBS, 1% BSA was added and incubated at 37° C. for one hour. Once again, the wells were washed with PBS-Tween and the PNPP substrate in DEA buffer (1 mg/ml) was applied to the wells. The absorbances at 405 nm were measured after incubation for 45 minutes.

[5] = biotin cuvette; values from Hytönen 2003; cited from earlier work
[6] = 2-iminobiotin surface, values from Hytönen 2003, cited from earlier work

Q: For “wt Avidin: Wild-type chicken avidin (SEQ ID NO 1), purified from chicken egg-white [reference compound]”, which “Reversibility of biotin binding” value [1] is on record?
A: Its value is 1 ± 1%.

Q: What about the “Monomeric form, relative proportion” value [2] of the same substance?
A: Its value is 100 percentage.

Q: And the “original signal after heat treatment of coated particles” value [3]?
A: Its value is 9%.

Q: What about the Kd [4] of the same substance?
A: Its Kd is 25 nM.

Q: What about the “Reversibility of binding to biotin” value [5] of the same substance?
A: The value was 4 ± 2%.

Q: What about the kass [6] of the same substance?
A: Its kass is “(5.5 ± 0.5) × 10^4 M^−1s^−1”.

Q: And the kdiss [6]?
A: The kdiss was “(1.9 ± 1.4) × 10^−3 s^−1”.

Q: What about the Kd ([6]; read-out: Kd detected directly from the binding curves) of the same substance?
A: Its Kd is 34 nM.

Q: And the Kd ([6]; read-out: Kd detected from the equilibrium response data)?
A: Its Kd is 22 nM.
